# Laboratory results published in US12589087B2, “Enantiomer selective action on neurotransmission” (The Board of Trustees of the Leland Stanford Junior …, priority 2021, dated 2026).
# Experiments:
# mGluR2 = target: T1, mGluR2 (Homo sapiens, UniProt Q14416); test: radioligand binding assay, recombinant Chem-1 cells
# T1 construct: host or cells: Chem-1 cells
# Experimental: (§1) Nonspecific AMPA, kainate and NMDA binding assays were performed by Eurofins Discovery (Cerep) using rat cerebral cortex membranes and radiolabeled [^3H]AMPA, [^3H]kainic acid and [^3H]CGP 39653, respectively. All compounds were tested at a single concentration of 100 uM in triplicate. mGluR1, mGluR2, mGluR5 and GABAB binding assays were performed by Eurofins Discovery. mGluR1 assay was performed using rat cerebellum membranes and radiolabeled [^3H]quisqalic acid. mGluR2 assay was performed using recombinant Chem-1 cells and [^3H]LY341495. mGluR5 and GABAB binding assays were performed using recombinant CHO-K1 cells and […], respectively. All compounds were tested at a single concentration of 100 uM in triplicate.
# (§2) All receptor assays were performed exactly as described in Example 1. Functional assays of all GABAA, NMDA (GluN2A-GluN2D) and AMPA (GluA2) receptor subunits were performed by SB Drug Discovery as a part of their CNS discovery panel using FLIPR technology. All compounds were tested at 7 concentrations in triplicate and EC50/IC50 was determined where applicable. Functional GABAB assay was performed by Eurofins Discovery (Cerep) using Ca^2+-dependent fluorimetry in RBL cells expressing human GABAB (B1/B2) receptor. All compounds were tested at a single concentration of 100 uM in triplicate. […]
# mGluR5 = target: T2, mGluR5 (Homo sapiens, UniProt P41594); test: radioligand binding assay, recombinant CHO-K1 cells
# T2 construct: host or cells: CHO-K1 cells
# Experimental: as §1
# (§3) All receptor assays were performed exactly as described in Example 1. Functional assays of all GABAA, NMDA (GluN2A-GluN2D) and AMPA (GluA2) receptor subunits were performed by SB Drug Discovery as a part of their CNS discovery panel using FLIPR technology. All compounds were tested at 7 concentrations in triplicate and EC50/IC50 was determined where applicable. Functional GABAB assay was performed by Eurofins Discovery (Cerep) using Ca^2+-dependent fluorimetry in RBL cells expressing human GABAB (B1/B2) receptor. All compounds were tested at a single concentration of 100 uM in triplicate. Nonspecific AMPA, kainate and NMDA binding assays were performed by Eurofins Discovery (Cerep) using rat cerebral cortex membranes and radiolabeled [^3H]AMPA, [^3H]kainic acid and [^3H]CGP 39653, respectively. All compounds were tested at a single concentration of 100 uM in triplicate. mGluR1, mGluR2, mGluR5 and GABAB binding assays were performed by Eurofins Discovery. All compounds were tested at a single concentration of 100 uM in triplicate.
# kainate nonspecific = test: radioligand binding assay, cerebral cortex membranes, [3H]kainic acid; settings: kainate nonspec, rat; 100 μM
# Experimental: as §1, §2
# GABAA α2β2γ2 = target: T3, GABAA α2β2γ2 (Homo sapiens, UniProt P18507+P47869+P47870); test: FLIPR functional assay, HEK 293 cells (agonist/PAM/antagonist); type: cell-based; settings: top concentration 1 mM, read-out: EC50, functional agonist receptor assay
# T3 construct: host or cells: HEK 293 (stably expressing)
# Experimental: (§4) Functional assays of all GABAA, NMDA (GluN2A-GluN2D) and AMPA (GluA2) receptor subunits were performed by SB Drug Discovery as a part of their CNS discovery panel using FLIPR technology. Briefly, receptor-expressing HEK 293 cell lines were incubated in a red membrane potential dye in HEPES:HBSS pH 7.4 buffer and the fluorescence (λex: 488, λex: 510-570) was monitored over time as the test compounds and/or reference compounds were added to the solution. In agonist assay, only test compounds were added. In positive allosteric modulator assay, cells were preincubated with test compounds and then low concentration (approximately EC20) of an appropriate agonist was added. In antagonist assay, cells were preincubated with test compounds and then high concentration (approximately EC80) of an appropriate agonist was added. For GABAA assays, GABA was used as the agonist, picrotoxin was used as the reference antagonist and allopregnanolone was used as the reference positive allosteric modulator (PAM). For NMDA assays, a mixture of glutamate, glycine and CaCl2 was used as the agonist, MK801 was the reference antagonist and pregnenolone sulfate or GNE 9278 were used as reference PAMs. For AMPA assays, glutamate was used as the agonist, CNQX was the reference antagonist and cyclothiazide was used as the reference PAM. All compounds were tested at 7 concentration points in triplicate and EC50/IC50 was determined where applicable. Functional GABAB assay was performed by Eurofins Discovery (Cerep) using Ca^2+-dependent fluorimetry in RBL cells expressing human GABAB (B1/B2) receptor. All compounds were tested at a single concentration of 100 uM in triplicate.
# as §3
# GABAA α2β3γ2 = target: T4, GABAA α2β3γ2 (Homo sapiens, UniProt P18507+P28472+P47869); test: as above; type: cell-based; settings: top concentration 1 mM, read-out: EC50, functional agonist receptor assay
# T4 construct: host or cells: HEK 293 (stably expressing)
# Experimental: as §4, §3
# GABAA α3β1γ2 = target: T5, GABAA α3β1γ2 (Homo sapiens, UniProt P18505+P18507+P34903); test: as above; type: cell-based; settings: top concentration 1 mM, read-out: EC50, functional agonist receptor assay
# T5 construct: host or cells: HEK 293 (stably expressing)
# Experimental: as §4, §3
# GABAA α3β2γ2 = target: T6, GABAA α3β2γ2 (Homo sapiens, UniProt P18507+P34903+P47870); test: as above; type: cell-based; settings: top concentration 1 mM, read-out: EC50, functional agonist receptor assay
# T6 construct: host or cells: HEK 293 (stably expressing)
# Experimental: as §4, §3
# GABAA α3β3γ2 = target: T7, GABAA α3β3γ2 (Homo sapiens, UniProt P18507+P28472+P34903); test: as above; type: cell-based; settings: top concentration 1 mM; for EC50: read-out: EC50, functional agonist receptor assay
# T7 construct: host or cells: HEK 293 (stably expressing)
# Experimental: as §4, §3
# GABAA α4β1γ2 = target: T8, GABAA α4β1γ2 (Homo sapiens, UniProt P18505+P18507+P48169); test: as above; type: cell-based; settings: top concentration 1 mM, read-out: EC50, functional agonist receptor assay
# T8 construct: host or cells: HEK 293 (stably expressing)
# Experimental: as §4, §3
# GABAA α4β2γ2 = target: T9, GABAA α4β2γ2 (Homo sapiens, UniProt P18507+P47870+P48169); test: as above; type: cell-based; settings: top concentration 1 mM, read-out: EC50, functional agonist receptor assay
# T9 construct: host or cells: HEK 293 (stably expressing)
# Experimental: as §4, §3
# GABAA α4β3γ2 = target: T10, GABAA α4β3γ2 (Homo sapiens, UniProt P18507+P28472+P48169); test: as above; type: cell-based; settings: top concentration 1 mM, read-out: EC50, functional agonist receptor assay
# T10 construct: host or cells: HEK 293 (stably expressing)
# Experimental: as §4, §3
# GABAA α6β1γ2 = GABAA α6β1γ2 (Homo sapiens, UniProt P18505+Q16445); test: as above; type: cell-based; settings: top concentration 1 mM, read-out: EC50, functional agonist receptor assay
# Experimental: as §4, §3
# GABAA α6β3γ2 = GABAA α6β3γ2 (Homo sapiens, UniProt P28472+Q16445); test: as above; type: cell-based; settings: top concentration 1 mM, read-out: EC50, functional agonist receptor assay
# Experimental: as §4, §3
# [1] = target: T11, human glutamine synthetase (Homo sapiens, UniProt P15104); test: Catalysis of 2MeGlu C5-amidation by glutamine synthetase; type: biochemical
# T11 construct: purchased Abcam ab222354
# Experimental: The procedure was adapted from an existing protocol. To a reaction mixture in a 1.5 mL microcentrifuge tube containing 10 mM substrate, 10 mM ATP, 20 mM MgCl2, 40 mM NH4Cl, 25 mM 2-mercaptoethanol in 100 mM imidazole-HCl buffer pH 7.0, recombinant human glutamine synthetase (final concentration: 5 ng/mL) was added. The tubes were incubated in a preheated thermomixer at 37° C. and shaken at 600 rpm (30 s on, 30 s off). 5 μL aliquots were collected in triplicate every 5 min and immediately diluted with 195 μL of cold 60% ACN containing 10 μM Glu-d5 and Gln-d5 as internal standards in a 96 well plate. After collecting all samples, 200 μL of ACN was added to all wells and the plate was shaken at 1000 rpm for 5 min at room temperature, and then stored at −80° C. until analysis.
# T2 sequence (P41594 21-1212): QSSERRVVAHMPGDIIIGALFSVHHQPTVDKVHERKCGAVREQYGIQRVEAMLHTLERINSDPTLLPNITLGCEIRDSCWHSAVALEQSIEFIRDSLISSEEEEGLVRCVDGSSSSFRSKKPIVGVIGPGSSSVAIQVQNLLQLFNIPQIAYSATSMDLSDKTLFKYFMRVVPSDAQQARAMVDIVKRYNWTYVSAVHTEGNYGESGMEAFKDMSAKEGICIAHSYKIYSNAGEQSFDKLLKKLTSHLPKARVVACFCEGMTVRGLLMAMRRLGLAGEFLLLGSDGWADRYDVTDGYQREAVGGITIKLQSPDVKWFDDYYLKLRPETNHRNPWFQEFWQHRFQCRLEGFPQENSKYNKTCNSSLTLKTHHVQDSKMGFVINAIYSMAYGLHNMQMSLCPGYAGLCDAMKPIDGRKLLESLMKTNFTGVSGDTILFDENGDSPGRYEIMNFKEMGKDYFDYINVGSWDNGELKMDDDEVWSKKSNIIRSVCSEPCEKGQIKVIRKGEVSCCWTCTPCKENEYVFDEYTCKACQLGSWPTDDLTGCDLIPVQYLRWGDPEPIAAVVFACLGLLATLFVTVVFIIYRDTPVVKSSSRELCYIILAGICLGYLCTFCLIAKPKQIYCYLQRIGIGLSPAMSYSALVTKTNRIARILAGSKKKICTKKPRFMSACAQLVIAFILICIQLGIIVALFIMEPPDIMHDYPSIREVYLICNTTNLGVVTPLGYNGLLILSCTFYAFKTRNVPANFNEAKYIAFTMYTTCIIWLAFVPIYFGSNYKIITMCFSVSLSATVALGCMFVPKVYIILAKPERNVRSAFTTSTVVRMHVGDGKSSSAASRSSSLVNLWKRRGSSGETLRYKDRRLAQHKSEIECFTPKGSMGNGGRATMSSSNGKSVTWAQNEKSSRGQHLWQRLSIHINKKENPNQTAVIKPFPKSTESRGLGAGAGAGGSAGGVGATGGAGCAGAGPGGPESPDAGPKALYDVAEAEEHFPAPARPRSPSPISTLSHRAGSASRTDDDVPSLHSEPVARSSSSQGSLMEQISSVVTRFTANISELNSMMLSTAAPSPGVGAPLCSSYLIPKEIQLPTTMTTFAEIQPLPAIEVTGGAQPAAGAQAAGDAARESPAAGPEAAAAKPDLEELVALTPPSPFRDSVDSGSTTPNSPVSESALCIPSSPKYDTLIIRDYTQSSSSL
# T7 sequence (P34903 29-492): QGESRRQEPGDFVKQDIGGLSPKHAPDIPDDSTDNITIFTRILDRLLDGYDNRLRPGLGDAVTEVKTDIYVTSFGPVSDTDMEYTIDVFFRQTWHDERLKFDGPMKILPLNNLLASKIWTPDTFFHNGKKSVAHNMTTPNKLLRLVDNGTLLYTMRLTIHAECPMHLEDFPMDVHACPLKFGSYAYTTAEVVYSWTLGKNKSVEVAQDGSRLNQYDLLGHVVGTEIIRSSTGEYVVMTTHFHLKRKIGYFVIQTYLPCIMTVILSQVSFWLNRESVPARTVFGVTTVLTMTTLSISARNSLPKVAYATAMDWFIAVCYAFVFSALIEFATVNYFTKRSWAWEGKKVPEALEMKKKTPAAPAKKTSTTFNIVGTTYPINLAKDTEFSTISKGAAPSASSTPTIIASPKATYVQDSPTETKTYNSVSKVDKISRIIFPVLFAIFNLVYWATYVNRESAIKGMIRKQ
# T7 sequence (P28472 26-473): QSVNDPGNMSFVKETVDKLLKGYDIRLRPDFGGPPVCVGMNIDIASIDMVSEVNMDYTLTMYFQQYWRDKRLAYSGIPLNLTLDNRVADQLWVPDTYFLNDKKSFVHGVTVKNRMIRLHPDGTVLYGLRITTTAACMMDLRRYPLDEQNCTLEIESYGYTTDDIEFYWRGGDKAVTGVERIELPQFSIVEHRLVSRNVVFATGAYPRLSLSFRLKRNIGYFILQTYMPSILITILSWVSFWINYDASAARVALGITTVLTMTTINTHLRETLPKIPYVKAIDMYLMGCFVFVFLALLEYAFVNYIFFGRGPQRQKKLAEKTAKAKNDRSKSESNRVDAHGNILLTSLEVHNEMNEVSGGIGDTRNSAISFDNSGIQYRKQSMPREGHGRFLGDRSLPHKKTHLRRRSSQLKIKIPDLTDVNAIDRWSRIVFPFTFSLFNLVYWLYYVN
# T7 sequence (P18507 40-475): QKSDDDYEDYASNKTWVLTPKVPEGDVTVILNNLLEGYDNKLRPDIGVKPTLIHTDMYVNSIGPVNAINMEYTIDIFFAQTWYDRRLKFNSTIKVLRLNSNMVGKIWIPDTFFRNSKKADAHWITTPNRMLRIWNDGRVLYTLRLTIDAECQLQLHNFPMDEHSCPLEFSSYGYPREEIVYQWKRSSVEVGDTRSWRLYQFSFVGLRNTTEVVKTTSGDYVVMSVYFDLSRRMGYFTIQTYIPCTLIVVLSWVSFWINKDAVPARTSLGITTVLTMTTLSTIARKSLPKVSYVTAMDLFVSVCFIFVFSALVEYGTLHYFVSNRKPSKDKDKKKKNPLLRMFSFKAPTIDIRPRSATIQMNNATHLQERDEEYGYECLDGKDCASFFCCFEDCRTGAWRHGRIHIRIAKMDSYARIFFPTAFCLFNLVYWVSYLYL
# T11 sequence (P15104 whole entry): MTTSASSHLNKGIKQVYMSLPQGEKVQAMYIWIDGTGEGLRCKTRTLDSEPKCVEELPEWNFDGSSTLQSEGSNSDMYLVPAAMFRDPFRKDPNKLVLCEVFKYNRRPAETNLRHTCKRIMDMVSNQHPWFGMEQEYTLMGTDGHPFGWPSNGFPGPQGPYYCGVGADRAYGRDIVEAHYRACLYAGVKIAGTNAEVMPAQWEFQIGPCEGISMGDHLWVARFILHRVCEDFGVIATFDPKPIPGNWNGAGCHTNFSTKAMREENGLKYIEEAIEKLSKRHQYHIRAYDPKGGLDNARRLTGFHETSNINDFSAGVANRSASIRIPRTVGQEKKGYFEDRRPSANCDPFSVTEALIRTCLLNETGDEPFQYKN
# T1 sequence (Q14416 19-872): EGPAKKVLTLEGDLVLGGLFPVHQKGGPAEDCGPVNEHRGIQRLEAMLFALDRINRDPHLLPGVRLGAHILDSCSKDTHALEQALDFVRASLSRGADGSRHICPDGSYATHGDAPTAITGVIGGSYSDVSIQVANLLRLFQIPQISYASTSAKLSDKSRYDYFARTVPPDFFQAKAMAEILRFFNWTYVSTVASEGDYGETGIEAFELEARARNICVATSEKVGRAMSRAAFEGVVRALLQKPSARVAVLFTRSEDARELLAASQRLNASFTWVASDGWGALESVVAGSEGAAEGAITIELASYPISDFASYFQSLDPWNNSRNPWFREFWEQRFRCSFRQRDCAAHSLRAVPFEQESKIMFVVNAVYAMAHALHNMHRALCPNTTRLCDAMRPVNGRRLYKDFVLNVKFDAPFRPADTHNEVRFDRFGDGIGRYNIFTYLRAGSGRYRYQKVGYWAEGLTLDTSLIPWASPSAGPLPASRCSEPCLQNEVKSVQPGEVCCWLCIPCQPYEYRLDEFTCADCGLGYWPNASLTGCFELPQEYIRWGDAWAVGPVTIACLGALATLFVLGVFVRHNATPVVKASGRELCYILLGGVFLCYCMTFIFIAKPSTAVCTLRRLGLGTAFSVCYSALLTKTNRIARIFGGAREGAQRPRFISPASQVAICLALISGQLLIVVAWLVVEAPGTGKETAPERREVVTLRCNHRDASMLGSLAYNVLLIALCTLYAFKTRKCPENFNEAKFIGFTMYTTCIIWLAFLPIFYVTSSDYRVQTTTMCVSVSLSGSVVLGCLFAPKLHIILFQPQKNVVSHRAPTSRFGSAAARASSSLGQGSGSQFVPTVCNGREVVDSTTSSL
# T6 sequence (P34903 29-492): as the sequence (P34903 29-492) above
# T6 sequence (P47870 25-512 limits assumed): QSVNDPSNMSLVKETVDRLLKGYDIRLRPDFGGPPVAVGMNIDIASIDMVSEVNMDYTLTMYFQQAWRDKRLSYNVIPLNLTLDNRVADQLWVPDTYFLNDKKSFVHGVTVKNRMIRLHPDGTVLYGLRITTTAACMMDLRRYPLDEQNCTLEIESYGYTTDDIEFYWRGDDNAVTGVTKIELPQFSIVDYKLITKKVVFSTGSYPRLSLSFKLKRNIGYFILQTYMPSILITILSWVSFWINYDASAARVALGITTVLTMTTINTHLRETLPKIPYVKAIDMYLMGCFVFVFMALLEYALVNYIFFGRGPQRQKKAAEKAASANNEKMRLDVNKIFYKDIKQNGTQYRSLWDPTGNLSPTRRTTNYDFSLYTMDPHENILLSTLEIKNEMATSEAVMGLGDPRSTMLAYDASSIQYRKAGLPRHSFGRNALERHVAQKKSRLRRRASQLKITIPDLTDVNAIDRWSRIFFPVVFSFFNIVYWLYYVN
# T6 sequence (P18507 40-475): as the sequence (P18507 40-475) above
# T5 sequence (P34903 29-492): as the sequence (P34903 29-492) above
# T5 sequence (P18505 26-474): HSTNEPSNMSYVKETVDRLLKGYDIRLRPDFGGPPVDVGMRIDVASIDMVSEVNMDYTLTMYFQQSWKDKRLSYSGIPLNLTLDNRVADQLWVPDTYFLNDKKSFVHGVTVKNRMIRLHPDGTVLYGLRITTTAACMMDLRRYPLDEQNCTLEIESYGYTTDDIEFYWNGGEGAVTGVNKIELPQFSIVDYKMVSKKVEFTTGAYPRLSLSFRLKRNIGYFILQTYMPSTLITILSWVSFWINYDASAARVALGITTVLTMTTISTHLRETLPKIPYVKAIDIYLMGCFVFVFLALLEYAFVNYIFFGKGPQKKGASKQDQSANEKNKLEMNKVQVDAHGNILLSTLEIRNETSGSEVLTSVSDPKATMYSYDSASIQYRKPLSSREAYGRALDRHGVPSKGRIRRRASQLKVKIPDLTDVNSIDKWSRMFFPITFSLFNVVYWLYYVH
# T5 sequence (P18507 40-475): as the sequence (P18507 40-475) above
Compound,inhibition at 100 µM (mGluR2) [%],inhibition at 100 µM (mGluR5; first mGluR5 row of Table 5) [%],inhibition at 100 µM (mGluR5; second mGluR5 row of Table 5) [%],% of radioligand binding inhibition (kainate nonspecific) [%],EC50 (GABAA α2β2γ2) [µM],EC50 (GABAA α2β3γ2) [µM],EC50 (GABAA α3β1γ2) [µM],EC50 (GABAA α3β2γ2) [mM],EC50 (GABAA α3β3γ2) [µM],EC50 (GABAA α4β1γ2) [µM],EC50 (GABAA α4β2γ2) [mM],EC50 (GABAA α4β3γ2) [mM],EC50 (GABAA α6β1γ2) [µM],EC50 (GABAA α6β3γ2) [µM],substrate of GS (amidation to 2MeGln) [1],"IC50 (GABAA α3β3γ2; read-out: IC50, functional antagonist receptor assay) [µM]"
"C[C@@](N)(CCC(=O)O)C(=O)O [(R)-2MeGlu, (R)-2-methylglutamic acid]",-3,-20,-2,18,660,622,742,1.04,959,870,1.25,> 1,772,> 1000,not a substrate,–
"C[C@](N)(CCC(=O)O)C(=O)O [(S)-2MeGlu, (S)-2-methylglutamic acid]",25,11,-4,20,530,342,782,0.961,725,704,1.02,> 1,280,998,substrates,978
